Series [1] is described as follows: Stability in human liver microsome. (In general: Liver microsomes are a subcellular fraction often used to study metabolism.)
For series [2] the following is noted: human.
Series [3] in a line: Rat pharmacokinetic evaluation. The format is in vivo, SD male rats. Conditions: SD rat; for tz1/2 po (terminal elimination half-life): intragastric 5.0 mg/kg; for tz1/2 iv (terminal elimination half-life): intravenous bolus 1 mg/kg. As to the method:
Experimental Example 4: Rat Pharmacokinetic Evaluation of the Compounds of the Invention
Aim: The in vivo pharmacokinetic parameters of the compounds in SD male rats (purchased from Beijing Vital River Animal Technology Co., Ltd.) were evaluated and bioavailability of the compounds was examined.
Animal Administration and Sample Collection:
The solution of compounds 65, 90, 107, 158 was intragastrically administered to SD rat at a dose of 5.0 mg/kg.
The experimental compound 76 was dissolved in 30% DMF+30% PEG400+40% saline to prepare a solution. The solution of compound 76 was intragastrically administered to SD rat at a dose of 5.0 mg/kg.
The experimental compound 76 was dissolved in 30% DMF+30% PEG400+40% saline to prepare a solution.
The experimental compounds 84 and 96 were dissolved in 5% DMSO+10% PEG400+85% (28% HP-β-CD) saline to prepare a solution. The solution of compounds 84 and 96 was intragastrically administered to SD rat at a dose of 5.0 mg/kg.
The experimental compounds 84 and 96 were dissolved in 5% DMSO+10% PEG400+85% (28% HP-β-CD) saline to prepare a solution.
The animals were fixed. The tail was heated with a water bath at 10 min before each time point. About 100 μL of blood from tail vein was collected, and then placed in an anti-coagulation tube containing EDTA-K2 after collection. Blood samples were centrifuged at 8000 rpm at 4° C. for 6 min to obtain plasma samples.
The concentration of test sample was output using Analyst 1.6.1 from AB SCIEX.

Series [4] in a line: Canine pharmacokinetic evaluation. Conditions: Beagle dogs, n = 3; for F %: dose iv/po 1/2 mg/kg; for AUCinf po / tz1/2 po (terminal elimination half-life): intragastric 2.0 mg/kg; for AUCinf iv / Cl_obs iv (clearance rate) / tz1/2 iv (terminal elimination half-life): intravenous bolus 1 mg/kg.
Series [5] has as its target human PDE9 (Homo sapiens (Human), UniProt O76083). The note with it: background statement on conventional PDE inhibitors; cited from earlier work.
Setting [6] is: human liver microsome 0.5 mg protein/mL, compound 1 μM, 37° C.

These results are taken from patent publication US11434248B2, “PDE9 inhibitor and use thereof” (Nanjing TransThera Biosciences Co. Ltd., priority 2017, dated 2022).

Structures are written as SMILES. Read-outs that look alike come from different tables or passages of the source.

human PDE9, sequence (O76083 whole entry): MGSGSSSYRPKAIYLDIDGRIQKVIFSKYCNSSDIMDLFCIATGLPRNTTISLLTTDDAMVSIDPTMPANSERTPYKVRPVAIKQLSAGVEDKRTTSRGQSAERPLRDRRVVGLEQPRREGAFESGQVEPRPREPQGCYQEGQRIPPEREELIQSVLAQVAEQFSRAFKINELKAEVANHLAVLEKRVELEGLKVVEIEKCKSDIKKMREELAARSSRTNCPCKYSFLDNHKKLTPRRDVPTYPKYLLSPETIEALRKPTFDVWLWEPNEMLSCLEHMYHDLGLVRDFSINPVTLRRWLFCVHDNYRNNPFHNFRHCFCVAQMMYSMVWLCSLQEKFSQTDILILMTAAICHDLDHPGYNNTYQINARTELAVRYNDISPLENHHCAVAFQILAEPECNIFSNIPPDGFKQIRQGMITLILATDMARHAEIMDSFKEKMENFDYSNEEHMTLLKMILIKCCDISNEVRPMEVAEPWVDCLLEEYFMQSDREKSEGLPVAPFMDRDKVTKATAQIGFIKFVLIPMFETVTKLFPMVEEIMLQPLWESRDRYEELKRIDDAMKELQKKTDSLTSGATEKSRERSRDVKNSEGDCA

Turning to `N#Cc1c(N2CC[C@@H](n3cccn3)C2)c2ccncc2[nH]c1=O` [Compound 19, (R)-4-(3-(1H-pyrazol-1-yl)pyrrolidin-1-yl)-2-oxo-1,2-dihydro-1,7-naphthyridin-3-carbonitrile], the k in series [1] (setting [6]) was found to be 0.191 min⁻¹.
Molecule `N#Cc1c(N2CCC3(CC2)CC3)c2ccncc2[nH]c1=O` [Compound 25, 2-oxo-4-(6-azaspiro[2.5]octane-6-yl)-1,2-dihydro-1,7-naphthyridin-3-carbonitrile] returned a k in series [2] of 0.0022 min⁻¹. In series [3], the “tz1/2 po (terminal elimination half-life)” value (“tz1/2 po” below) came out at 1.40 h and the “tz1/2 iv (terminal elimination half-life)” value (from here on “tz1/2 iv”) is 0.51 h. Further, in series [4], the F % turned out to be 99.1%, the AUCinf po is 4449 ng·h/mL, the “tz1/2 po” value is 9.45 h and the AUCinf iv stood at 2244 ng·h/mL. Also, in series [4], the “Cl_obs iv (clearance rate)” value came to 7.83 mL/min/kg and the “tz1/2 iv” value amounted to 10.4 h.
With `N#Cc1c(N2CCC3(CC2)CC3)c2cc(C(O)CO)ncc2[nH]c1=O` (centres unmarked) [Compound 32, 6-(1,2-dihydroxyethyl)-2-oxo-4-(6-azaspiro[2.5]octane-6-yl)-1,2-dihydro-1,7-naphthyridin-3-carbonitrile], in series [1] (setting [6]), the T½ result is “→∞” and the k is -0.3760 min⁻¹.
In series [2], `N#Cc1c(N2CCC3(CCC3)CC2)c2cc(N3CC(O)C3)ncc2[nH]c1=O` [Compound 51, 6-(3-hydroxyazetidin-1-yl)-2-oxo-4-(7-azaspiro[3.5]nonane-7-yl)-1,2-dihydro-1,7-naphthyridin-3-carbonitrile] displayed a k of 0.9418 min⁻¹.
On to `N#Cc1c(N2CCC3(CCC3)CC2)c2cc(N3CC(N)C3)ncc2[nH]c1=O` [Compound 53, 6-(3-aminoazetidin-1-yl)-2-oxo-4-(7-azaspiro[3.5]nonane-7-yl)-1,2-dihydro-1,7-naphthyridin-3-carbonitrile], for which, in series [2], the k turned out to be 0.4821 min⁻¹.
Turning to `Cc1cc2c(N3CCC4(CCC4)CC3)c(C#N)c(=O)[nH]c2cn1` [Compound 65, 6-methyl-2-oxo-4-(7-azaspiro[3.5]nonane-7-yl)-1,2-dihydro-1,7-naphthyridin-3-carbonitrile], in series [3], the “tz1/2 po” value worked out at 2.25 h and the “tz1/2 iv” value amounted to 1.47 h. Besides, in series [4], the F % is listed as 25.5%, the AUCinf po was 543 ng·h/mL, the “tz1/2 po” value is listed as 0.47 h and the AUCinf iv turned out to be 1065 ng·h/mL. In series [4], the “Cl_obs iv (clearance rate)” value stood at 15.7 mL/min/kg and the “tz1/2 iv” value was determined as 0.49 h.
Regarding `COc1cc2c(N3CCC4(CCC4)CC3)c(C#N)c(=O)[nH]c2cn1` [Compound 66, 6-methoxy-2-oxo-4-(7-azaspiro[3.5]nonane-7-yl)-1,2-dihydro-1,7-naphthyridin-3-carbonitrile], in series [1] (setting [6]), the T½ entry is “→^” and the k was -0.515 min⁻¹.
Turning to `CCc1cc2c(N3CCC4(CC3)CC4)c(C#N)c(=O)[nH]c2cn1` [Compound 76, 6-ethyl-2-oxo-4-(6-azaspiro[2.5]octane-6-yl)-1,2-dihydro-1,7-naphthyridin-3-carbonitrile], the k in series [2] is 0.0015 min⁻¹. Also, in series [3], the “tz1/2 po” value turned out to be 9.60 h and the “tz1/2 iv” value worked out at 0.89 h.
`N#Cc1c(N2CCC3(CC2)CC3)c2ncccc2[nH]c1=O` [Compound 80, 2-oxo-4-(6-azaspiro[2.5]octane-6-yl)-1,2-dihydro-1,5-naphthyridin-3-carbonitrile] came in with a k in series [2] of 0.9877 min⁻¹.
As to `COC1(C)CCN(c2c(C#N)c(=O)[nH]c3cnccc23)CC1` [Compound 81, 4-(4-methoxy-4-methylpiperidin-1-yl)-2-oxo-1,2-dihydro-1,7-naphthyridin-3-carbonitrile], in series [1] (setting [6]), the k stood at 0.0012 min⁻¹.
In the case of `CC(C)(O)c1cc2c(N3CCC4(CCC4)CC3)c(C#N)c(=O)[nH]c2cn1` [Compound 82, 6-(2-hydroxypropan-2-yl)-2-oxo-4-(7-azaspiro[3.5]nonane-7-yl)-1,2-dihydro-1,7-naphthyridin-3-carbonitrile], the k in series [2] worked out at 0.9760 min⁻¹.
Turning to `N#Cc1c(N2CCC3(CC2)CC3)c2cc(C(=O)O)ncc2[nH]c1=O` [Compound 83, 3-cyano-2-oxo-4-(6-azaspiro[2.5]octane-6-yl)-1,2-dihydro-1,7-naphthyridin-6-carboxylic acid], in series [1] (setting [6]), the T½ entry is given as “→∞” and the k was 0.5421 min⁻¹.
`CC(C)(O)c1cc2c(N3CCC4(CC3)CC4)c(C#N)c(=O)[nH]c2cn1` [Compound 84, 6-(2-hydroxypropan-2-yl)-2-oxo-4-(6-azaspiro[2.5]octane-6-yl)-1,2-dihydro-1,7-naphthyridin-3-carbonitrile]: in series [3], the “tz1/2 po” value is 3.24 h and the “tz1/2 iv” value was 1.89 h.
Regarding `N#Cc1c(N2CCC3(CC2)CC3)c2cc(C(O)C3CC3)ncc2[nH]c1=O` (centres unmarked) [Compound 90, 6-(cyclopropyl (hydroxy)methyl)-2-oxo-4-(6-azaspiro[2.5]octane-6-yl)-1,2-dihydro-1,7-naphthyridin-3-carbonitrile], the k in series [2] is 0.0037 min⁻¹. Also, in series [3], the “tz1/2 po” value came out at 4.49 h and the “tz1/2 iv” value is on record as 1.48 h.
Regarding `CNC(=O)c1cc2c(N3CCC4(CC3)CC4)c(C#N)c(=O)[nH]c2cn1` [Compound 96, 3-cyano-N-methyl-2-oxo-4-(6-azaspiro[2.5]octane-6-yl)-1,2-dihydro-1,7-naphthyridin-6-formamide], the “tz1/2 iv” value in series [3] turned out to be 0.30 h⁻¹.
Turning to `CCc1cc2c(N3CCC(C)(OC)CC3)c(C#N)c(=O)[nH]c2cn1` [Compound 107, 6-ethyl-4-(4-methoxy-4-methylpiperidin-1-yl)-2-oxo-1,2-dihydro-1,7-naphthyridin-3-carbonitrile], the k in series [1] (setting [6]) was found to be 0.0023 min⁻¹.
The same measure, in the same setting: to `COC1(C)CCN(c2c(C#N)c(=O)[nH]c3cnc(C(C)(C)O)cc23)CC1` [Compound 109, 6-(2-hydroxypropan-2-yl)-4-(4-methoxy-4-methylpiperidin-1-yl)-2-oxo-1,2-dihydro-1,7-naphthyridine-3-carbonitrile] belongs 0.4444 min⁻¹.
In series [1] (setting [6]), `COCCOc1cc2c(N3CCC(C)(OC)CC3)c(C#N)c(=O)[nH]c2cn1` [Compound 145, 4-(4-methoxy-4-methylpiperidin-1-yl)-6-(2-methoxyethoxy)-2-oxo-1,2-dihydro-1,7-naphthyridin-3-carbonitrile] came in with a k of 0.0019 min⁻¹.
For `N#Cc1c(N2CCCCCC2)c2ccccc2[nH]c1=O` [Compound I-8, reference compound], in series [1] (setting [6]), the CLint is listed as 0.1244 mL · min^−1 · mg^−1 proteins and the k is 0.727 min⁻¹. The “Original drug residual % at 60 min” value in series [1] (human liver microsome 0.5 mg protein/mL, compound 1 μM, β-NADPH 1 mM, 37° C., 60 min) is given as 5.19%. For the same molecule, in series [1] (human, liver microsomes), the half-life (usually the time needed for the level to fall by half in the phase considered) at 1 μM was 0.186 h.
`CC(C)Cn1c(=O)n(C)c(=O)c2[nH]cnc21` [IBMX]: the “inhibition activity on PDE9” value in series [5] is listed as “no or very low inhibition activity”.
Take `CC(=O)Nc1ccc(-c2c[nH]c(=O)cn2)cc1` [SKF94120]: in series [5], the “inhibition activity on PDE9” value was “no or very low inhibition activity”.
Consider `OCCN(CCO)c1nc(N2CCCCC2)c2nc(N(CCO)CCO)nc(N3CCCCC3)c2n1` [dipyridamole], for which, in series [5], the “inhibition activity on PDE9” value is “no or very low inhibition activity”.
For the molecule `COc1ccc(C2CNC(=O)C2)cc1OC1CCCC1` (centres unmarked) [rolipram], the “inhibition activity on PDE9” value in series [5] is listed as “no or very low inhibition activity”.
Take `CCOC(=O)C1=C[C@]2(CC)CCCN3CCc4c(n1c1ccccc41)[C@@H]32` [vinpocetine]: the “inhibition activity on PDE9” value in series [5] is listed as “no or very low inhibition activity”.
